The subject of data set [1] is Rattus norvegicus. The experiment in a line: Inhibition of histamine-induced acid secretion in Jcl:SD rat gastric assessed as pH of gastric perfusate at 1 mg/kg, iv pretreated for 3 mins followed by histamine.2HCl treatment measured up to 2 hrs by glass electrode method (reference value: 2). The class given is functional.
A short description of data set [2]: Cytotoxicity against human HepG2 cells assessed as cellular ATP level at 100 uM after 1 day by ATPLite assay relative to control. The class given is cell-based. Conditions: read-out: Activity. For orientation: ATP-based viability assays read luminescence as a measure of living cells.
For data set [3], the system named is Rattus norvegicus. The experiment in a line: Inhibition of histamine-induced acid secretion in Jcl:SD rat gastric at 1 mg/kg, iv pretreated for 3 mins followed by histamine.2HCl treatment measured after 3 hrs by titration method. The class given is functional.
The nature of data set [4]: Inhibition of H+/K+-ATPase in porcine stomach gastric mucosal microsomes assessed as reduction in inorganic phosphate production using ATP as substrate preincubated for 30 mins followed by ATP addition in presence of KCl by malachite green reagent based colorimetric assay. On the set-up: species or system Sus scrofa.
Data set [5] concerns the target hERG (KCNH2) (Homo sapiens, UniProt Q12809). The data set is described as follows: Inhibition of human ERG expressed in HEK cells at 10 uM at -75 mV holding potential by Whole-cell voltage clamp assay relative to control. The data set is classed as cell-based. Conditions: HEK cells expressing human ERG.
Data set [6] has as its system Rattus norvegicus. The experiment in a line: Inhibition of histamine-induced acid secretion in Jcl:SD rat gastric assessed as increase in pH of gastric perfusate at 1 mg/kg, iv pretreated for 3 mins followed by histamine.2HCl treatment measured after 2 hrs by glass electrode method. The data set is classed as functional, organism-based.
The nature of data set [7]: Lipophilicity, log D of the compound at pH 7.4 by HPLC analysis. The data set is classed as physicochemical. The conditions noted are these: buffer.
Data set [8] deals with Rattus norvegicus. The data set is described as follows: Inhibition of histamine-induced acid secretion in Jcl:SD rat gastric assessed as pH of gastric perfusate at 1 mg/kg, iv pretreated for 3 mins followed by histamine.2HCl treatment measured after 150 to 180 mins by glass electrode method (reference value: 2). The class given is functional.
Data set [9] can be described thus: Metabolic stability of the compound.
A short description of data set [10]: Inhibition of CYP450 (unknown origin). The data set is classed as ADME. The conditions noted are these: human.
Data set [11] in a line: Solubility of the compound. The class given is physicochemical.
Data set [12] deals with Canis familiaris. The experiment in a line: Inhibition of histamine-induced acid secretion in dog heidenhain pouch at 0.8 mg/kg, po treated 1 day after and 1 to 48 hrs before histamine.2HCl treatment measured 30 mins post histamine challenge by titration method. The data set is classed as functional. Conditions: Canis lupus familiaris.
Data set [13] can be described thus: Effective permeability of the compound at 10 uM at pH 5 after 3 hrs by PAMPA. The class given is physicochemical. The conditions noted are these: read-out: Peff. Background: The PAMPA barrier holds no transporters, so it reflects passive diffusion.
A short description of data set [14]: Dissociation constant, pKa of the compound. The data set is classed as physicochemical.
Data set [15] relates to Rattus norvegicus. The data set is described as follows: Inhibition of histamine-induced acid secretion in Jcl:SD rat gastric assessed as pH of gastric perfusate at 0.7 mg/kg, iv pretreated for 3 mins followed by histamine.2HCl treatment measured after 5 hrs by glass electrode method (reference value: 2). The class given is functional.
Data set [16] in a line: Effective permeability of the compound at 10 uM at pH 7.4 after 3 hrs by PAMPA. The class given is physicochemical. The conditions noted are these: read-out: Peff.
The nature of data set [17]: Stability of the compound under acidic condition. The data set is classed as physicochemical.
The subject of data set [18] is Rattus norvegicus. The data set is described as follows: Inhibition of histamine-induced acid secretion in po dosed rat gastric pretreated for 1 hr followed by histamine.2HCl treatment measured after 3 hrs by titration method. The class given is functional, organism-based.

The source made the active and inactive calls. The calls are words filed in the database; no cut-off is given here.

Chain of hERG (KCNH2) (Q12809 whole entry): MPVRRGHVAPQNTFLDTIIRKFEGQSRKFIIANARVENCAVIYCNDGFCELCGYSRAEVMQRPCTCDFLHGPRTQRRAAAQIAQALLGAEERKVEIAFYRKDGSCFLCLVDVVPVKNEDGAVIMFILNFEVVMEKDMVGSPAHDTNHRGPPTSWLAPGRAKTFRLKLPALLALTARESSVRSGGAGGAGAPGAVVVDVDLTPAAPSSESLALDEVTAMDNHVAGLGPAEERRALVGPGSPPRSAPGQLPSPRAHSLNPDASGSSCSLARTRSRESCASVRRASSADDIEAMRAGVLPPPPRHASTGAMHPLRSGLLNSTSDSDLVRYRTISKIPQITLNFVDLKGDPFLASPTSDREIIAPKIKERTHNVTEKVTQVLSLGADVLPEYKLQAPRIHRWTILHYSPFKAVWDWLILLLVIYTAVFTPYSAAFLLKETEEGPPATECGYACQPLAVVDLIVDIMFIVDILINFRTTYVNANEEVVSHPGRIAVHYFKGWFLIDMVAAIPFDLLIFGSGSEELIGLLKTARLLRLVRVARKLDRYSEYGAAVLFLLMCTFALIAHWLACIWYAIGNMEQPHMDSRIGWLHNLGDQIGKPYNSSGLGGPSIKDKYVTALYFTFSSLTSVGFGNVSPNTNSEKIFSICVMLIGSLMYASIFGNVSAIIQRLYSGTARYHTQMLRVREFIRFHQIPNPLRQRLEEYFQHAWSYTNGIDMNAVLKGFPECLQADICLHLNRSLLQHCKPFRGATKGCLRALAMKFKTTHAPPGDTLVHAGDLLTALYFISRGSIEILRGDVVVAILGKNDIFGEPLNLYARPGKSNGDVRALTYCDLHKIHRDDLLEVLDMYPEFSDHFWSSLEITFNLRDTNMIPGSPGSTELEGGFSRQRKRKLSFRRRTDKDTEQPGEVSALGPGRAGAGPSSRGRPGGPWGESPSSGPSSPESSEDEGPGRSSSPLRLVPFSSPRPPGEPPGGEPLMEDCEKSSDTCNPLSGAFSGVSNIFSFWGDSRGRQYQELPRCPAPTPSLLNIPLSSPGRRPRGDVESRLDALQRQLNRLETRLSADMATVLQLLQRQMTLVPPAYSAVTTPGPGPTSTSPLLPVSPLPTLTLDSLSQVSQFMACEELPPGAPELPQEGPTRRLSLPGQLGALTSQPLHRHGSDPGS

On to `CNCc1cc(-c2cccnc2C#N)n(S(=O)(=O)c2ccccc2)c1`, for which the pH in data set [1] is given as over 5. Further, the viability at 24 h, 100 µM in data set [2] amounted to 82.1%. For the same molecule, in [3], the inhibition in vivo at 1 mg/kg turned out to be 99%. Further, the IC50 in [4] worked out at 120 nM. In data set [5], the inhibition at 10 µM came to 32.9%. For the same molecule, the inhibition entry in data set [6] was “inactive”. Also, the log distribution coefficient (logD) in [7] is -0.32.
Take `CNCc1cc(-c2cccnc2F)n(S(=O)(=O)c2cccnc2)c1`: the viability at 24 h, 100 µM in [2] is 85.7%. In data set [3], the inhibition in vivo at 1 mg/kg was determined as 96%. Also, the IC50 in data set [4] turned out to be 210 nM. This molecule also gave an inhibition at 10 µM in data set [5] of 4.4%. Moreover, the pH in data set [8] was 5. In data set [7], the logD was -0.85.
With `CNCc1cc(-c2cccnc2)n(S(=O)(=O)c2ccccc2)c1`, in data set [9], the Stability entry is “Stable”. In addition, in data set [2], the viability at 24 h, 100 µM is 95%. Also, the inhibition in vivo at 1 mg/kg in [3] is 4%. In addition, the IC50 in [4] was found to be 130 nM. For the same molecule, in data set [5], the inhibition at 10 µM came to 43.3%. Besides, the “inhibition (INH)” value in data set [10] was “Not Active”. For the same molecule, the solubility result in data set [11] is “Soluble”. For the same molecule, the log distribution coefficient (logD) in data set [7] was found to be 0.08.
On to `CNCc1cn(S(=O)(=O)c2cccnc2)c(-c2cccnc2F)c1F`, for which, in data set [12], at 0.8 mg/kg the inhibition in vivo was 100%. Besides, the viability at 24 h, 100 µM in data set [2] was found to be 100%. The Papp at 3 h, 10 µM in data set [13] worked out at 4.7 ×10⁻⁶ cm/s; in [16], 25.6 ×10⁻⁶ cm/s. The inhibition in vivo at 1 mg/kg in [3] came to 98%. Also, in [14], the pKa was determined as 8.54. Also, the IC50 in data set [4] came out at 49 nM. In addition, the inhibition at 10 µM in data set [5] came to 39.8%. For the same molecule, in data set [10], the “inhibition (INH)” value was “Not Active”. Also, the pH in data set [15] was found to be 6. In addition, in [17], the Stability result is “Stable”. In data set [7], this molecule gave a logD of 0.04. Also, in [18], the inhibition entry is “Dose-dependent effect”.

As usually defined, the inhibition in vivo is how much of the control response was suppressed. The term IC50 denotes the midpoint of a concentration-inhibition curve. One may read the inhibition as the drop in the measured response relative to a control, in per cent. Broadly, the logD is the decadic logarithm of the distribution of all forms, ionised or not, between an organic phase and buffer at a given pH. A low value points to a more hydrophilic compound. In general, pKa refers to the pH at which an ionisable group is half protonated. The low end stands for a group that gives up its proton readily, the high end for a group that holds its proton tightly.
